Test: xn = mol fraction of the nth substance listed
Settings: 100 kPa, Liquid; for viscosity: Falling or rolling sphere viscometry; for mass density: Vibrating tube method

NC1CCCCC1 [cyclohexylamine] + CC(C)CO
Settings	mass density, 293.15 K [kg/m3]	mass density, 298.15 K [kg/m3]	mass density, 303.15 K [kg/m3]	mass density, 308.15 K [kg/m3]	mass density, 313.15 K [kg/m3]	viscosity, 293.15 K [mPa·s]	viscosity, 298.15 K [mPa·s]	viscosity, 303.15 K [mPa·s]	viscosity, 308.15 K [mPa·s]	viscosity, 313.15 K [mPa·s]
x2 = 0	866.85	862.31	857.79	853.24	848.71	2.134	1.944	1.786	1.572	1.417
x2 = 0.06096	865.7	861.18	856.68	852.18	847.71	2.408	2.146	1.948	1.697	1.515
x2 = 0.1205	865.02	860.59	856.11	851.64	847.15	2.575	2.279	2.055	1.791	1.578
x2 = 0.2357	861.79	857.37	852.93	848.49	844.09	2.838	2.474	2.204	1.917	1.678
x2 = 0.3458	856.98	852.62	848.23	843.79	839.39	3.048	2.644	2.334	2.022	1.761
x2 = 0.4513	850.89	846.55	842.2	837.83	833.46	3.246	2.805	2.454	2.123	1.839
x2 = 0.5523	847.01	842.76	838.46	834.13	829.78	3.403	2.937	2.558	2.212	1.902
x2 = 0.6492	839.36	835.13	830.89	826.62	822.37	3.522	3.037	2.626	2.275	1.96
x2 = 0.7421	830.79	826.7	822.55	818.36	814.15	3.534	3.046	2.629	2.303	1.998
x2 = 0.8315	820.81	816.78	812.73	808.63	804.54	3.606	3.088	2.646	2.309	1.998
x2 = 0.9174	814.12	810.19	806.19	802.09	798	3.668	3.13	2.676	2.345	2.015

— the NIST ThermoML archive (doi:10.1021/acs.jced.6b00158)
